Measurements published in patent US8952024B2, “Herbicidal pyrimidone derivatives” (E I du Pont de Nemours and Company, priority 2009, dated 2015).

How the values were obtained:
Type in all cases: in vivo
[1] = tested on: windgrass (Apera spica-venti); experiment: Test B postemergence plant response; details: Postemergence
Procedure, shortened: (§1)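 Plants grown in peat/vermiculite medium were sprayed postemergence at 2–18 cm height (1- to 4-leaf stage). After 13–15 days in the greenhouse, response was rated visually against untreated controls on a 0–100 scale (0 no effect, 100 complete control).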

[2] = tested on: chickweed (Stellaria media); experiment: Test B postemergence plant response; details: Postemergence
Procedure, shortened: as §1

[3] = tested on: canarygrass (Phalaris minor); experiment: Test B postemergence plant response; details: Postemergence
Procedure, shortened: as §1

[4] = tested on: barnyardgrass (Echinochloa crus-galli); experiment: Test A pre-/postemergence plant response
Procedure, shortened: (§2)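 Pre: directed soil spray on seeded loam/sand blend. Post: same formulation (non-phytotoxic solvent + surfactant) on 2–10 cm plants, 1–2 leaf stage. Greenhouse ~10 d; visual injury score 0–100 vs untreated.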

[5] = tested on: morningglory (Ipomoea spp.); experiment: Test A pre-/postemergence plant response
Procedure, shortened: as §2

[6] = tested on: large crabgrass (Digitaria sanguinalis); experiment: Test A pre-/postemergence plant response
Procedure, shortened: as §2

[7] = tested on: giant foxtail (Setaria faberii); experiment: Test A pre-/postemergence plant response
Procedure, shortened: as §2

corn (Zea mays) = experiment: Test A pre-/postemergence plant response
Procedure, shortened: as §2

[8] = tested on: wheat (Triticum aestivum); experiment: Test A pre-/postemergence plant response
Procedure, shortened: as §2

[9] = tested on: velvetleaf (Abutilon theophrasti); experiment: Test A pre-/postemergence plant response
Procedure, shortened: as §2

[10] = tested on: pigweed (Amaranthus retroflexus); experiment: Test A pre-/postemergence plant response
Procedure, shortened: as §2

[11] = tested on: ducksalad (Heteranthera limosa); experiment: Test B flooded paddy test; details: for Plant response rating, Flood, Ducksalad: 250 g ai/ha, flooded paddy test, visual rating on 0 to 100 scale (0 no effect, 100 complete control) after 13 to 15 days; for Plant response rating, Ducksalad: Flood (flooded paddy test), 13 to 15 days
Procedure, shortened: (§3)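 Post-flood paddy application: compounds are introduced into water 3 cm deep over the soil, reaching plants at the 2-leaf stage. The water level is maintained, and after 13–15 days under greenhouse conditions, response is judged by eye relative to controls, where 100 means complete control.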

rice (Oryza sativa) = experiment: Test B flooded paddy test; details: for Plant response rating, Flood, Rice: 250 g ai/ha, flooded paddy test, visual rating on 0 to 100 scale (0 no effect, 100 complete control) after 13 to 15 days; for Plant response rating, Rice: Flood (flooded paddy test), 13 to 15 days
Procedure, shortened: as §3

[12] = 62 g ai/ha, scale 0 (no effect) to 100 (complete control), 13 to 15 days
[13] = 125 g ai/ha, visual rating after 13 to 15 days, scale 0 (no effect) to 100 (complete control)
[14] = 31 g ai/ha, scale 0 to 100 (0 no effect, 100 complete control)
[15] = Postemergence, 125 g ai/ha, visual injury, 0 to 100 scale (0 no effect, 100 complete control), approx. ten days
[16] = Postemergence, 500 g ai/ha, 0 to 100 scale, 0 = no effect, 100 = complete control, approx. ten days
[17] = Preemergence, 125 g ai/ha, 0 to 100 scale, 0 = no effect, 100 = complete control
[18] = Preemergence, 500 g ai/ha, visual injury, 0 to 100 scale (0 no effect, 100 complete control), approx. ten days
[19] = 62 g ai/ha, scale of 0 to 100 where 0 is no effect and 100 is complete control
[20] = 31 g ai/ha, 0 to 100 scale (0 no effect, 100 complete control)
[21] = 62 g ai/ha, scale 0 to 100 (0 no effect, 100 complete control)
[22] = 250 g ai/ha, scale 0 to 100 (0 no effect, 100 complete control), 13 to 15 days
[23] = 125 g ai/ha, scale 0 to 100 (0 no effect, 100 complete control)
[24] = Postemergence, 125 g ai/ha, 0 to 100 scale where 0 is no effect and 100 is complete control
[25] = Postemergence, 500 g ai/ha, visual injury, 0 to 100 scale (0 no effect, 100 complete control), approx. ten days
[26] = Preemergence, 500 g ai/ha, 0 to 100 scale, 0 = no effect, 100 = complete control
[27] = 125 g ai/ha, scale 0 to 100, 0 is no effect, 100 is complete control
[28] = Flood, 31 g ai/ha, scale 0 to 100 (0 no effect, 100 complete control)

Q: Which results are given for `Cc1cccc(Cl)c1-n1c(-c2ccccc2)ncc(C(=O)C2=C(O)CCCC2=O)c1=O` [Compound 46]?
A: Plant response rating, Windgrass [1, 12]: 10; Plant response rating, Windgrass [1, 13]: 15; Plant response rating, Chickweed [2, 14]: 80; Plant response rating, Chickweed [2, 12]: 95; Plant response rating, Chickweed [2, 13]: 95; Chickweed plant response rating ([2]; 250 g ai/ha, scale 0 to 100): 98; Plant response rating, Canarygrass [3, 14]: 0; Plant response rating, Canarygrass [3, 12]: 0; Plant response rating, Canarygrass [3, 13]: 0; Canarygrass plant response rating ([3]; 250 g ai/ha, scale 0 to 100): 0; Barnyardgrass plant response rating [4, 15]: 80; Plant response rating, Barnyardgrass [4, 16]: 90; Plant response rating, Barnyardgrass [4, 17]: 0; Plant response rating, Barnyardgrass [4, 18]: 50; Morningglory plant response rating [5, 15]: 60; Plant response rating, Morningglory [5, 16]: 70; Plant response rating, Morningglory [5, 17]: 10; Plant response rating, Morningglory [5, 18]: 70; Crabgrass, Large plant response rating [6, 15]: 70; Plant response rating, Crabgrass, Large [6, 16]: 90; Plant response rating, Crabgrass, Large [6, 17]: 30; Plant response rating, Crabgrass, Large [6, 18]: 80; Foxtail, Giant plant response rating [7, 15]: 60; Plant response rating, Foxtail, Giant [7, 16]: 90; Plant response rating, Foxtail, Giant [7, 17]: 0; Plant response rating, Foxtail, Giant [7, 18]: 60; Corn plant response rating (corn (Zea mays); [15]): 0; Plant response rating, Corn (corn (Zea mays); [16]): 20; Plant response rating, Corn (corn (Zea mays); [17]): 0; Plant response rating, Corn (corn (Zea mays); [18]): 0; Wheat plant response rating [8, 15]: 0; Plant response rating, Wheat [8, 16]: 0; Plant response rating, Wheat [8, 17]: 0; Plant response rating, Wheat [8, 18]: 20; Velvetleaf plant response rating [9, 15]: 100; Plant response rating, Velvetleaf [9, 16]: 100; Plant response rating, Velvetleaf [9, 17]: 40; Plant response rating, Velvetleaf [9, 18]: 70; Pigweed plant response rating [10, 15]: 80; Plant response rating, Pigweed [10, 16]: 100; Plant response rating, Pigweed [10, 17]: 60; Plant response rating, Pigweed [10, 18]: 90; Plant response rating, Flood, Ducksalad [11]: 20; Plant response rating, Ducksalad [11, 19]: 20; Plant response rating, Flood, Rice (rice (Oryza sativa)): 10; Plant response rating, Rice (rice (Oryza sativa); [19]): 10

Q: What does the source list for `O=C(C1=C(O)C2CCC(C2)C1=O)c1cnc(-c2ccsc2)n(CC2CCCO2)c1=O` (stereo not shown) [Compound 229]?
A: Plant response rating, Windgrass [1, 20]: 0; Plant response rating, Windgrass [1, 21]: 40; Plant response rating, Windgrass [1, 22]: 65; Plant response rating, Chickweed [2, 20]: 70; Plant response rating, Chickweed [2, 21]: 85; Plant response rating, Chickweed [2, 23]: 90; Plant response rating, Chickweed [2, 22]: 98; Plant response rating, Canarygrass [3, 20]: 5; Plant response rating, Canarygrass [3, 21]: 15; Plant response rating, Canarygrass [3, 23]: 50; Plant response rating, Canarygrass [3, 22]: 60; Plant response rating, Barnyardgrass [4, 24]: 90; Barnyardgrass plant response rating [4, 25]: 100; Plant response rating, Barnyardgrass [4, 17]: 0; Plant response rating, Barnyardgrass [4, 26]: 70; Plant response rating, Morningglory [5, 24]: 100; Morningglory plant response rating [5, 25]: 100; Plant response rating, Morningglory [5, 17]: 40; Plant response rating, Morningglory [5, 26]: 80; Plant response rating, Crabgrass, Large [6, 24]: 80; Crabgrass, Large plant response rating [6, 25]: 100; Plant response rating, Crabgrass, Large [6, 17]: 80; Plant response rating, Crabgrass, Large [6, 26]: 100; Plant response rating, Foxtail, Giant [7, 24]: 90; Foxtail, Giant plant response rating [7, 25]: 100; Plant response rating, Foxtail, Giant [7, 17]: 50; Plant response rating, Foxtail, Giant [7, 26]: 60; Plant response rating, Corn (corn (Zea mays); [24]): 0; Corn plant response rating (corn (Zea mays); [25]): 40; Plant response rating, Corn (corn (Zea mays); [17]): 0; Plant response rating, Corn (corn (Zea mays); [26]): 0; Plant response rating, Wheat [8, 24]: 0; Wheat plant response rating [8, 25]: 20; Plant response rating, Wheat [8, 17]: 0; Plant response rating, Wheat [8, 26]: 0; Plant response rating, Velvetleaf [9, 24]: 100; Velvetleaf plant response rating [9, 25]: 100; Plant response rating, Velvetleaf [9, 17]: 100; Plant response rating, Velvetleaf [9, 26]: 100; Plant response rating, Pigweed [10, 24]: 100; Pigweed plant response rating [10, 25]: 100; Plant response rating, Pigweed [10, 17]: 90; Plant response rating, Pigweed [10, 26]: 100; Plant response rating, Flood, Ducksalad [11]: 40; Plant response rating, Ducksalad [11, 19]: 0; Plant response rating, Ducksalad [11, 27]: 0; Ducksalad plant response rating [11, 28]: 0; Plant response rating, Flood, Rice (rice (Oryza sativa)): 20; Plant response rating, Rice (rice (Oryza sativa); [19]): 0; Plant response rating, Rice (rice (Oryza sativa); [27]): 0; Rice plant response rating (rice (Oryza sativa); [28]): 0
